Laboratory results taken from patent US20140243302A1, “BRIDGED BICYCLIC COMPOUNDS FOR THE TREATMENT OF BACTERIAL INFECTIONS” (priority 2011, published 2014).
In brackets after ≈: the same amount, converted by molar mass.

The molecules below were run on Staphylococcus aureus Smith (assay: MIC assay, modified agar dilution (CLSI), S. aureus Smith). Conditions: Staphylococcus aureus, agar dilution, 35° C., 16-20 hr; lowest concentration that completely inhibited growth; read-out: S_aureus_Smith_WT_MIC.
Format: cell-based
Protocol: The potency of antibacterial agents was measured using the Minimal Inhibitory Concentration (MIC) assay. The assay measures the ability of test agents to inhibit the growth of bacteria on agar-containing medium.
The bacterial test strains used were exemplified by Staphylococcus aureus Smith, Enterococcus faecium A2373, Streptococcus pneumoniae IID554, and Escherichia coli ATCC 25922. All strains were maintained as frozen stocks held at −80° C. in skim milk. Other bacterial test strains are well known to those skilled in the art and can be used for testing.
Mueller Hinton Agar (MHA BBL; Becton Dickinson and Company, Sparks, Md.) was used as the medium. MHA was supplemented with 5% defibrinated horse blood (DHB; Nippon Biotest Laboratories inc.) to support the growth of S. pneumoniae and E. faecium.
MIC values were determined using a modified agar dilution procedure described by the Clinical and Laboratory Standards Institute (CLSI; Methods for Dilution Antimicrobial Susceptibility Tests for Bacteria That Grow Aerobically; Approved Standard—Eighth Edition. CLSI document M07-A8 [ISBN 1-56238-689-1]. Clinical and Laboratory Standards Institute, 940 West Valley Road, Suite 1400, Wayne, Pa. 19087-1898 USA, 2009).
Stock solutions (6.4 mgmL) of test compounds were prepared in 100% ultrapure dimethyl sulfoxide (DMSO; source) on the day of the assay. Subsequent serial dilutions were performed to generate solutions with concentrations ranging from 6.4 to 0.0002 mgmL in 100% DMSO.
Agar medium containing test compound was prepared by adding the dilutions of antimicrobial solution to molten MHA at a temperature of 45-50° C. The agar and antimicrobial solution were mixed thoroughly, poured into petri dishes, and allowed to solidify at room temperature. The final concentration of test compounds in the MHA medium ranged from 128 to 0.001 μg/mL with two-fold dilutions. MHA plates lacking antibacterial compound were used for growth controls.
Prior to susceptibility testing, the bacterial isolates were removed from frozen storage, thawed at room temperature, sub-cultured to MHA medium and incubated overnight at 35° C. S. pneumoniae and E. faecium were subcultured on MHA supplemented with 5% DHB at 35° C. with […]. Colonies from each plate were suspended in normal saline. This suspension was adjusted to the turbidity of a 0.5 McFarland standard, 1-2×10^8 colony forming units (CFU) per mL, and diluted 100-fold to 1-2×10^6 CFUmL.
Suspensions of bacterial cultures were applied to the surface of MHA plates containing test compound as well as to a growth control plate lacking test compound using an inoculum-replicating device with 4 mm pins. The replicating device applied 5 uL of the bacterial suspension such that each spot contained approx. 1×10^4 CFU. Plates were dried for about 40 min and incubated at 35° C. for 16-20 hr prior to scoring.

Compound | MIC
COc1ccc2ncc(F)c(C[C@@H](O)C34CCC(NCc5ncc6c(n5)OCCO6)(CC3)CO4)c2n1 [Example 145, (R)-1-(4-((6,7-Dihydro-[1,4]dioxino[2,3-d]pyrimidin-2-yl)methylamino)-2-oxabicyclo[2.2.2]octan-1-yl)-2-(3-fluoro-6-methoxy-1,5-naphthyridin-4-yl)ethanol] | 0.25 µg/mL (≈ 0.502 µM)
COc1ccc2ncc(F)c(CCC34CCC(NCc5ccc6c(n5)OCCO6)(CC3)CO4)c2n1 [Example 146, N-((2,3-Dihydro-[1,4]dioxino[2,3-b]pyridin-6-yl)methyl)-1-(2-(3-fluoro-6-methoxy-1,5-naphthyridin-4-yl)ethyl)-2-oxabicyclo[2.2.2]octan-4-amine] | 0.125 µg/mL (≈ 0.26 µM)
Cl.O=C1COc2ccc(CNC34CCC(C(O)Cc5c(F)cnc6ccc(OCCO)nc56)(CC3)OC4)nc2N1 (stereo not shown) [Example 171, 6-((1-(2-(3-Fluoro-6-(2-hydroxyethoxy)-1,5-naphthyridin-4-yl)-1-hydroxyethyl)-2-oxabicyclo[2.2.2]octan-4-ylamino)methyl)-2H-pyrido[3,2-b][1,4]oxazin-3(4H)-one Hydrochloride] | 0.125 µg/mL
COc1ccc2ncc(F)c(CCC34CCC(NCc5ccc6ncc(=O)[nH]c6n5)(CC3)CO4)c2n1 [Example 178, 6-[({1-[2-(3-Fluoro-6-methoxy-1,5-naphthyridin-4-yl)ethyl]-2-oxabicyclo[2.2.2]oct-4-yl}amino)methyl]pyrido[2,3-b]pyrazin-3(4H)-one] | 0.063 µg/mL (≈ 0.128 µM)
COc1ccc2ncc(F)c(CCC34CCC(NCc5nc6c(c(C)c5F)OCC(=O)N6)(CC3)CO4)c2n1.Cl [Example 197, 1-(2-(3-Fluoro-6-methoxy-1,5-naphthyridin-4-yl)ethyl)-N-((7-fluoro-8-methyl-3-oxo-3,4-dihydro-2H-pyrido[3,2-b][1,4]oxazin-6-yl)methyl)-2-oxabicyclo[2.2.2]octan-4-aminium chloride] | 0.5 µg/mL
O=C1COc2ccc(CNC34CCC(CCc5c(F)cnc6ccc(OCCCCO)nc56)(CC3)OC4)nc2N1 [Example 36, 6-((1-(2-(3-Fluoro-6-(4-hydroxybutoxy)-1,5-naphthyridin-4-yl)ethyl)-2-oxabicyclo[2.2.2]octan-4-ylamino)methyl)-2H-pyrido[3,2-b][1,4]oxazin-3(4H)-one] | 0.031 µg/mL (≈ 0.0562 µM)
COc1ccc2ncc(F)c(CC(O)C34CCC(NCc5ccc6c(n5)NC(=O)CS6)(CC3)CO4)c2n1 (stereo not shown) [Example 156, 6-((1-(2-(3-Fluoro-6-methoxy-1,5-naphthyridin-4-yl)-1-hydroxyethyl)-2-oxabicyclo[2.2.2]octan-4-ylamino)methyl)-2H-pyrido[3,2-b][1,4]thiazin-3(4H)-one] | 0.063 µg/mL (≈ 0.12 µM)
COc1ccc2ncc(F)c(CC(O)C34CCC(NCc5cc6c(cn5)OCCO6)(CC3)CO4)c2n1 (single isomer, unassigned) [Example 132, 1-(4-((2,3-Dihydro-[1,4]dioxino[2,3-c]pyridin-7-yl)methylamino)-2-oxabicyclo[2.2.2]octan-1-yl)-2-(3-fluoro-6-methoxy-1,5-naphthyridin-4-yl)ethanol] | 0.031 µg/mL (≈ 0.0624 µM)
COc1ccc2ncc(F)c(CCC34CCC(NCc5ccc(N6CCCC6)nc5)(CC3)CO4)c2n1 [Example 82, 1-(2-(3-Fluoro-6-methoxy-1,5-naphthyridin-4-yl)ethyl)-N-((6-(pyrrolidin-1-yl)pyridin-3-yl)methyl)-2-oxabicyclo[2.2.2]octan-4-amine] | 0.25 µg/mL (≈ 0.509 µM)
COc1ccc2ncc(F)c(CCC34CCC(NCc5cc6ccc(F)cc6n(C)c5=O)(CC3)CO4)c2n1 [Example 105, 7-Fluoro-3-((1-(2-(3-fluoro-6-methoxy-1,5-naphthyridin-4-yl)ethyl)-2-oxabicyclo[2.2.2]octan-4-ylamino)methyl)-1-methylquinolin-2(1H)-one] | 2 µg/mL (≈ 3.84 µM)

Second part, the molecule after the results:

MIC | Compound
0.008 µg/mL | COc1ccc2ncc(F)c(CCC34CCC(NCc5nc6c(cc5Cl)OCC(=O)N6)(CC3)CO4)c2n1.Cl [Example 88, 7-chloro-6-(((1-(2-(3-fluoro-6-methoxy-1,5-naphthyridin-4-yl)ethyl)-2-oxabicyclo[2.2.2]octan-4-yl)amino)methyl)-2H-pyrido[3,2-b][1,4]oxazin-3(4H)-one]
16 µg/mL | Cl.O=C1COc2ccc(CNC34CCC(CCn5c(=O)ccc6ncc(OCC7CC7C(=O)O)cc65)(CC3)OC4)nc2N1 (stereo not shown) [Example 283, 2-((6-Oxo-5-(2-(4-((3-oxo-3,4-dihydro-2H-pyrido[3,2-b][1,4]oxazin-6-yl)methylamino)-2-oxabicyclo[2.2.2]octan-1-yl)ethyl)-5,6-dihydro-1,5-naphthyridin-3-yloxy)methyl)cyclopropanecarboxylic Acid Hydrochloride]
0.25 µg/mL (≈ 0.442 µM) | CCOC(=O)COc1ccc2ncc(F)c(CCC34CCC(NCc5ccc6c(n5)NC(=O)CO6)(CC3)CO4)c2n1 [Example 32, Ethyl 2-(7-Fluoro-8-(2-(4-((3-oxo-3,4-dihydro-2H-pyrido[3,2-b][1,4]oxazin-6-yl)methylamino)-2-oxabicyclo[2.2.2]octan-1-yl)ethyl)-1,5-naphthyridin-2-yloxy)acetate]
1 µg/mL (≈ 1.78 µM) | NCC1(COc2ccc3ncc(F)c(CCC45CCC(NCc6ccc7c(n6)NC(=O)CO7)(CC4)CO5)c3n2)CC1 [Example 43, 6-((1-(2-(6-((1-(Aminomethyl)cyclopropyl)methoxy)-3-fluoro-1,5-naphthyridin-4-yl)ethyl)-2-oxabicyclo[2.2.2]octan-4-ylamino)methyl)-2H-pyrido[3,2-b][1,4]oxazin-3(4H)-one]
0.25 µg/mL (≈ 0.423 µM) | COC(=O)[C@H]1C[C@H]1COc1ccc2ncc(F)c(CCC34CCC(NCc5ccc6c(n5)NC(=O)CO6)(CC3)CO4)c2n1 (single isomer, unassigned; enantiomer b) [Example 228, Methyl 2-((7-Fluoro-8-(2-(4-((3-oxo-3,4-dihydro-2H-pyrido[3,2-b][1,4]oxazin-6-yl)methylamino)-2-oxabicyclo[2.2.2]octan-1-yl)ethyl)-1,5-naphthyridin-2-yloxy)methyl)cyclopropanecarboxylate (Enantiomer B)]
0.5 µg/mL (≈ 0.866 µM) | COc1ccc2ncc(F)c(CC(O)(C(F)(F)F)C34CCC(NCc5ccc6c(n5)NC(=O)CO6)(CC3)CO4)c2n1 (stereo not shown) [Example 138, 6-[({1-[1,1,1-Trifluoro-3-(3-fluoro-6-methoxy-1,5-naphthyridin-4-yl)-2-hydroxypropan-2-yl]-2-oxabicyclo[2.2.2]oct-4-yl}amino)methyl]-2H-pyrido[3,2-b][1,4]oxazin-3(4H)-one]
2 µg/mL (≈ 3.94 µM) | COc1ccc2ncc(F)c(CCC34CCC(NCc5ccc6c(n5)N(C)C(=O)CO6)(CC3)CO4)c2n1 [Example 101, 6-((1-(2-(3-Fluoro-6-methoxy-1,5-naphthyridin-4-yl)ethyl)-2-oxabicyclo[2.2.2]octan-4-ylamino)methyl)-4-methyl-2H-pyrido[3,2-b][1,4]oxazin-3(4H)-one]
0.125 µg/mL (≈ 0.253 µM) | O=C1COc2ccc(CNC34CCC(CCc5c(Cl)cnc6ccc(O)nc56)(CC3)CC4)nc2N1 [Example 9, 6-((4-(2-(3-Chloro-6-hydroxy-1,5-naphthyridin-4-yl)ethyl)bicyclo[2.2.2]octan-1-ylamino)methyl)-2H-pyrido[3,2-b][1,4]oxazin-3(4H)-one]
1 µg/mL (≈ 1.93 µM) | O=C1COc2ccc(CNC34CCC(CCn5c(=O)c6cccn6c6c(F)cccc65)(CC3)OC4)nc2N1 [Example 112, 6-((1-(2-(9-Fluoro-4-oxopyrrolo[1,2-a]quinoxalin-5(4H)-yl)ethyl)-2-oxabicyclo[2.2.2]octan-4-ylamino)methyl)-2H-pyrido[3,2-b][1,4]oxazin-3(4H)-one]
32 µg/mL (≈ 61.9 µM) | O=C1COc2ccc(CNC34CCC(CCN5C(=O)N6CCCN=C6c6ccccc65)(CC3)OC4)nc2N1 [Example 118, 6-(((1-(2-(6-Oxo-3,4-dihydro-2H-pyrimido[1,2-c]quinazolin-7(6H)-yl)ethyl)-2-oxabicyclo[2.2.2]octan-4-yl)amino)methyl)-2H-pyrido[3,2-b][1,4]oxazin-3(4H)-one]
0.25 µg/mL (≈ 0.466 µM) | NCCCOc1ccc2ncc(F)c(CCC34CCC(NCc5ccc6c(n5)NC(=O)CO6)(CC3)CO4)c2n1 [Example 38, 6-((1-(2-(6-(3-Aminopropoxy)-3-fluoro-1,5-naphthyridin-4-yl)ethyl)-2-oxabicyclo[2.2.2]octan-4-ylamino)methyl)-2H-pyrido[3,2-b][1,4]oxazin-3(4H)-one]
4 µg/mL (≈ 7.55 µM) | COc1ccc2ncc(F)c(CCC34CCC(NCc5ccc6c(n5)NS(=O)(=O)CO6)(CC3)CO4)c2n1 [Example 163, 7-((1-(2-(3-Fluoro-6-methoxy-1,5-naphthyridin-4-yl)ethyl)-2-oxabicyclo[2.2.2]octan-4-ylamino)methyl)-1H-pyrido[2,3-e][1,3,4]oxathiazine-2,2-dioxide]
